Where “and” joins values, the source holds several entries; their conditions need not be identical. Equal values may be shown once.
Key:
[1] = system: anti collagen antibodies induced arthritis (ACAIA); assay: ACAIA mice: hot plate withdrawal latency; type: in vivo, Balb/c mice
Method: On days 0, 5 and 11 animals are placed on hot plate apparatus (53±1° C.) and the time until the first response is observed and recorded.

[2] = system: MMP-9; assay: RHE vitiligo model: MMP-9 secretion by ELISA; type: cell-based, human; conditions: Rux 1.5%, 48 h
Method: (§1) […] Three epidermis samples per condition are fixed in 4% formaldehyde solution and embedded in paraffin for further analysis (morphology analysis, melanin and melanocytes localisation/quantification). Three other epidermis samples per condition are put in a specific lysis buffer for total RNA extraction.
(§2) At the end of the treatments, culture media is collected (from 3 epidermis per condition), aliquoted and stored at −20° C. until use in ELISA assays. The quantity of MMP-9 secreted by the epidermis at the end of the treatments is analysed using the human MMP-9 Quantikine ELISA kit (Bio-Techne; DMP900). The secretion of E-cadherin in culture media is measured using to human E-cadherin Quantikine ELISA kit (Bio-Techne; DCADE0) dedicated for the measurement of natural human E-cadherin in culture supernates, serum, plasma, urine, and saliva.
(§3) The ELISAs are performed following the instructions of the supplier. The quantities of MMP-9 and E-cadherin are determined by comparisons with standard curves performed with recombinant human MMP-9 or E-cadherin provided in the kits.
(§4) Quantification of secretion of MMP-9 and E-cadherin by ELISA from collected culture medium was conducted in accordance with Method E. The results, shown in FIG. 5A and FIG. 5B are based on Tables 23 and 24 respectively and presented in percentage of release in comparison to the stimulated control. A statistical analysis (student t-test) was performed to compare the effects of the treatments with the formulations to the vehicle (with $: 0.05>p>0.01; $$: 0.01>p>0.001; and $$$: p<0.001). The same analysis was performed to compare the effects of the vehicle and of the unstimulated control to the stimulated control (with *: 0.05>p>0.01; **: 0.01>p>0.001; and ***: p<0.001). The analysis was performed from three replicates per condition (n=3). The mean of the three values and the standard deviation are presented on the histograms in FIG. 5A and FIG. 5B. As shown in Table 21 and FIG. 5A and consistent with the results of Part A, MMP-9 secretion was increased following the stimulation with the cytokines, which validates the assay.

[3] = system: E-cadherin; assay: RHE vitiligo model: E-cadherin secretion by ELISA; type: cell-based, human; conditions: Rux 1.5%, 48 h
Method: as §1, §2, §3, §4

[4] = TNF-α/IFN-γ stimulated RHE, replicates N1-N3
[5] = culture medium of RHE, TNF-α 12 ng/ml/IFN-γ 12 ng/ml
[6] = culture medium of RHE, TNF-α 12 ng/ml/IFN-γ 12 ng/ml, replicates N1-N3

SMILES	Hot Plate Change in withdrawal latency (Avg.) ([1]; 1 mg/kg IA, Baseline)	Hot Plate Change in withdrawal latency (Avg.) ([1]; 1 mg/kg IA, Day 5)	Hot Plate Change in withdrawal latency (Avg.) ([1]; 1 mg/kg IA, Day 11)	Hot Plate Change in withdrawal latency (Avg.) ([1]; 1 mg/kg IP, Baseline)	Hot Plate Change in withdrawal latency (Avg.) ([1]; 1 mg/kg IP, Day 5)	Hot Plate Change in withdrawal latency (Avg.) ([1]; 1 mg/kg IP, Day 11)	MMP-9 (% stimulated ctl) Mean ([2]; TNF-α/IFN-γ stimulated RHE)	MMP-9 (% stimulated ctl) [2, 4]	Mean conc MMP-9 [2, 5]	Conc MMP-9 [2, 6]	E-Cad (% stimulated ctl) Mean ([3]; TNF-α/IFN-γ stimulated RHE)	E-Cad (% stimulated ctl) [3, 4]	Mean conc E-Cad [3, 5]	Conc E-Cad [3, 6]
C[C@@H]1C[C@H]2[C@@H]3CCC4=CC(=O)C=C[C@]4(C)[C@@]3(F)[C@@H](O)C[C@]2(C)[C@@]1(O)C(=O)CO [Dex]	11.71 s	10.14 s	12.86 s	11.86 s	12.43 s	12.29 s	–	–	–	–	–	–	–	–
N#CC[C@H](C1CCCC1)n1cc(-c2ncnc3[nH]ccc23)cn1 [Rux]	–	–	–	–	–	–	11%	2% and 28% and 4%	2.0 ng/mL	0.4 ng/mL and 4.9 ng/mL and 0.7 ng/mL	160%	77% and 247% and 155%	3.7 ng/mL	1.8 ng/mL and 5.7 ng/mL and 3.6 ng/mL

From patent US20250339409A1, “USES OF PAN BET INHIBITORS” (VYNE THERAPEUTICS INC., priority 2021, published 2025)
